Reference: US7754747B2, “Oxazolo-naphthyl acids” (Wyeth LLC, priority 2004, dated 2010)

Experiments:
[1] = target: T1, recombinant human plasminogen activator inhibitor-1 (PAI-1) (Homo sapiens, UniProt P05121); test: Primary Screen for the PAI-1 Inhibition (residual tPA activity, Spectrozyme-tPA chromogenic substrate); type: biochemical; conditions: pH 6.6 buffer; for inhibition at 10 µM: 10 μM test compound; for inhibition at 25 µM: 25 μM test compound
T1 construct: purchased Molecular Innovations, Royal Oak, Mich
T1 sequence (P05121 24-402): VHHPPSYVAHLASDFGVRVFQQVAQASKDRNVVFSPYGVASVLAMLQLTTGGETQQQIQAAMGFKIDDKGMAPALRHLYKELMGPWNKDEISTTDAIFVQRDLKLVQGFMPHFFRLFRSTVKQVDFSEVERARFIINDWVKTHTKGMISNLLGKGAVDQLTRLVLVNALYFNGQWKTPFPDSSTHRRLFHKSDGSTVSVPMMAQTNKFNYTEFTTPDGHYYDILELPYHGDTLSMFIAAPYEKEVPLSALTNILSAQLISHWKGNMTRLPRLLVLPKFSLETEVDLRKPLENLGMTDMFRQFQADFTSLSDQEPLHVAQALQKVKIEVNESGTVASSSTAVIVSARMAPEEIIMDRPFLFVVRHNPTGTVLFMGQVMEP
Procedure: Test compounds are dissolved in DMSO at a final concentration of 10 mM, then diluted 100×in physiologic buffer. The inhibitory assay is initiated by the addition of the test compound (1-100 μM final concentration, maximun DMSO concentration of 0.2%) in a pH 6.6 buffer containing 140 Mn recombinant human plasminogen activator inhibitor-1 (PAI-1; Molecular Innovations, Royal Oak, Mich.). Following a 1 hour incubation at room temperature, 70 Mn of recombinant human tissue plasminogen activator (tPA) is added, and the combination of the test compound, PAI-1 and tPA is incubated for an additional 30 minutes. Following the second incubation, Spectrozyme-tPA (American Diagnostica, Greenwich, Conn.), a chromogenic substrate for tPA, is added and absorbance read at 405 nm at 0 and 60 minutes. Relative PAI-1 inhibition is equal to the residual tPA activity in the presence of the test compound and PAI-1. Control treatments include the complete inhibition of tPA by PAI-1 at the molar ratio employed (2:1), and the absence of any effect of the test compound on tPA alone.

human PAI-1 = human PAI-1 (Homo sapiens, UniProt P05121); test: Assay for determining IC50 of inhibition of PAI-1 (Antibody Assay, active PAI-1 bound to tPA-coated plate); type: binding; conditions: pH 7.5 buffer, human PAI-1 50 ng/ml
Chain of human PAI-1 (P05121 24-402): as above
Procedure: This assay is based upon the non-SDS dissociable interaction between tPA and active PAI-1. Assay plates are initially coated with human tPA (10 μg/ml). Test compounds of the present invention are dissolved in DMSO at 10 mM, then diluted with physiologic buffer (pH 7.5) to a final concentration of 1-50 μM. Test compounds are incubated with human PAI-1 (50 ng/ml) for 15 minutes at room temperature. The tPA-coated plate is washed with a solution of 0.05% Tween 20 and 0.1% BSA, then the plate is blocked with a solution of 3% BSA. An aliquot of the oxazolo-naphthyl acid/PAI-1 solution is then added to the tPA-coated plate, incubated at room temperature for 1 hour, and washed. Active PAI-1 bound to the plate is assessed by adding an aliquot of a 1:1000 dilution of the 33B8 monoclonal antibody against human PAI-1, and incubating the plate at room temperature for 1 hour (Molecular Innovations, Royal Oak, Mich.). The plate is again washed, and a solution of goat anti-mouse IgG-alkaline phosphatase conjugate is added at a 1:50,000 dilution in goat serum. The plate is incubated 30 minutes at room temperature, washed, and a solution of alkaline phosphatase substrate is added. The plate is incubated 45 minutes at room temperature, and color development is determined at OD405nm. The quantitation of active PAI-1 bound to tPA at varying concentrations of the test compound is used to determine the IC50. Results are analyzed using a logarithmic best-fit equation. The assay sensitivity is 5 ng/ml of human PAI-1 as determined from a standard curve ranging from 0-100 ng/ml.

| Compound | inhibition at 10 µM [1] [%] | inhibition at 25 µM [1] [%] | melting point [°C] | IC50 (human PAI-1) [µM] |
| --- | --- | --- | --- | --- |
| c1ccc(-c2ncc(-c3ccc4cc(OCc5nnn[nH]5)ccc4c3)o2)cc1 [Example 1, 5-({[6-(2-phenyl-1,3-oxazol-5-yl)-2-naphthyl]oxy}methyl)-1H-tetraazole] | 17 | 65 | 239 to 241 | 68.4 |
| CCCCc1oc2ccccc2c1-c1ncc(-c2ccc3cc(OCc4nnn[nH]4)ccc3c2)o1 [Example 2, 5-[({6-[2-(2-butyl-1-benzofuran-3-yl)-1,3-oxazol-5-yl]-2-naphthyl}oxy)methyl]-1H-tetraazole] | 12 | 52 | 238 to 240 | 19.4 |
| CCCCc1oc2ccccc2c1-c1ncc(-c2ccc3cc(OC(Cc4ccccc4)C(=O)O)ccc3c2)o1 (centres unmarked) [Example 3, 2-({6-[2-(2-butyl-1-benzofuran-3-yl)-1,3-oxazol-5-yl]-2-naphthyl}oxy)-3-phenylpropanoic acid] | 32 | 66 | 174 to 177 | 26.6 |
| CCCCc1oc2ccccc2c1-c1ncc(-c2ccc3cc(OCC(=O)O)ccc3c2)o1 [Example 4, ({6-[2-(2-butyl-1-benzofuran-3-yl)-1,3-oxazol-5-yl]-2-naphthyl}oxy)acetic acid] | 23 | 46 | 214 to 216 | 22.7 |
| O=C(O)C(Cc1ccccc1)Oc1ccc2cc(-c3cnc(-c4cn(Cc5ccccc5)c5ccccc45)o3)ccc2c1 (centres unmarked) [Example 5, 2-({6-[2-(1-benzyl-1H-indol-3-yl)-1,3-oxazol-5-yl]-2-naphthyl}oxy)-3-phenylpropanoic acid] | 1 | 34 | 125 to 127 | 47.4 |
| O=C(O)COc1ccc2cc(-c3cnc(-c4cn(Cc5ccccc5)c5ccccc45)o3)ccc2c1 [Example 6, ({6-[2-(1-benzyl-1H-indol-3-yl)-1,3-oxazol-5-yl]-2-naphthyl}oxy)acetic acid] | 4 | 28 | 238 to 242 |  |
| c1ccc(Cn2cc(-c3ncc(-c4ccc5cc(OCc6nnn[nH]6)ccc5c4)o3)c3ccccc32)cc1 [Example 7, 1-benzyl-3-{5-[6-(1H-tetrazol-5-ylmethoxy)-2-naphthyl]-1,3-oxazol-2-yl}-1H-indole] | 19 | 61 | 244 to 246 |  |
| Cn1cc(-c2ncc(-c3ccc4cc(OC(Cc5ccccc5)C(=O)O)ccc4c3)o2)c2ccccc21 (centres unmarked) [Example 8, 2-({6-[2-(1-methyl-1H-indol-3-yl)-1,3-oxazol-5-yl]-2-naphthyl}oxy)-3-phenylpropanoic acid] | 2 | 75 | 149 to 151 |  |
| Cn1cc(-c2ncc(-c3ccc4cc(OCC(=O)O)ccc4c3)o2)c2ccccc21 [Example 9, ({6-[2-(1-Methyl-1H-indol-3-yl)-1,3-oxazol-5-yl]-2-naphthyl}oxy)acetic acid] | 3 | 24 | 269 to 272 |  |
| Cn1cc(-c2ncc(-c3ccc4cc(OCc5nnn[nH]5)ccc4c3)o2)c2ccccc21 [Example 10, 1-methyl-3-{5-[6-(1H-tetrazol-5-ylmethoxy)-2-naphthyl]-1,3-oxazol-2-yl}-1H-indole] | 16 | 35 | 254 to 256 |  |

Other lines, results leading:

| inhibition at 10 µM [1] [%] | inhibition at 25 µM [1] [%] | melting point [°C] | IC50 (human PAI-1) [µM] | Compound |
| --- | --- | --- | --- | --- |
| 18 | 31 | 78 to 82 |  | O=C(O)C(Cc1ccccc1)Oc1ccc2cc(-c3cnc(Cc4ccccc4)o3)ccc2c1 (centres unmarked) [Example 11, 2-{[6-(2-benzyl-1,3-oxazol-5-yl)-2-naphthyl]oxy}-3-phenylpropanoic acid] |
| 0 | 26 | 236 to 238 |  | O=C(O)COc1ccc2cc(-c3cnc(Cc4ccccc4)o3)ccc2c1 [Example 12, {[6-(2-benzyl-1,3-oxazol-5-yl)-2-naphthyl]oxy}acetic acid] |
| 11 | 23 | 227 to 228 |  | c1ccc(Cc2ncc(-c3ccc4cc(OCc5nnn[nH]5)ccc4c3)o2)cc1 [Example 13, 5-({[6-(2-benzyl-1,3-oxazol-5-yl)-2-naphthyl]oxy}methyl)-1H-tetraazole] |
| 12 | 17 | 258 to 260 |  | O=C(O)COc1ccc2cc(-c3cnc(Cc4ccc5ccccc5c4)o3)ccc2c1 [Example 14, ({6-[2-(2-naphthylmethyl)-1,3-oxazol-5-yl]-2-naphthyl}oxy)acetic acid] |
| 22 | 48 | 179 to 182 |  | c1ccc2cc(Cc3ncc(-c4ccc5cc(OCc6nnn[nH]6)ccc5c4)o3)ccc2c1 [Example 15, 5-[({6-[2-(2-naphthylmethyl)-1,3-oxazol-5-yl]-2-naphthyl}oxy)methyl]-1H-tetrazole] |
| 11 | 16 | 235 to 237 |  | CCCCc1oc2ccccc2c1-c1ncc(-c2ccc3c(Br)c(OCc4nnn[nH]4)ccc3c2)o1 [Example 16, 5-[({1-bromo-6-[2-(2-butyl-1-benzofuran-3-yl)-1,3-oxazol-5-yl]-2-naphthyl}oxy)methyl]-1H-tetrazole] |
| 14 | 20 | 251 to 254 |  | CCCCc1oc2ccccc2c1-c1ncc(-c2ccc3cc(OCc4ccc(C(=O)O)cc4)ccc3c2)o1 [Example 17, 4-[({6-[2-(2-butyl-1-benzofuran-3-yl)-1,3-oxazol-5-yl]-2-naphthyl}oxy)methyl]benzoic acid] |
| 33 | 62 | 285 to 287 |  | CCCCc1oc2ccccc2c1-c1ncc(-c2ccc3cc(OCc4ccc(C(=O)O)cc4C(=O)O)ccc3c2)o1 [Example 18, 4-[({6-[2-(2-butyl-1-benzofuran-3-yl)-1,3-oxazol-5-yl]-2-naphthyl}oxy)methyl]isophthalic acid] |
| 12 | 23 | 281 to 283 |  | CCCCc1oc2ccccc2c1-c1ncc(-c2ccc3c(Br)c(OCc4ccc(C(=O)O)cc4)ccc3c2)o1 [Example 19, 4-[({1-bromo-6-[2-(2-butyl-1-benzofuran-3-yl)-1,3-oxazol-5-yl]-2-naphthyl}oxy)methyl]benzoic acid] |
